Assay results as given in patent publication US20070191402A1, “Method of searching substrate having antidiabetic activity” (KYOWA HAKKO KOGYO CO., LTD., priority 2002, published 2007).

Key:
MIN6 cell = test: Insulin secretion test using MIN6 cell; format: cell-based, murine; conditions: for Insulin secretory activity (%): MIN6 cell, glucose 14.5 mmol/l or 8.4 mmol/l; for Insulin secretion-promoting activity (%): 10 μmol/l
Experimental: Culturing MIN6 cell and testing insulin secretion using MIN6 cell were carried out according to the method described in Diabetorogia, 36, 1139-1145 (1993).
In other words, the influence of a compound on the insulin secretion activity in the presence of 14.5 mmol/l glucose was assessed by assaying the amount of insulin in the cell culture supernatant collected as follows.
The MIN6 cell cultured in a 24-well plate was washed twice with 1 ml of buffer A [119 mmol/l NaCl, 4.74 mmol/l KCl, 2.54 mmol/l CaCl2, 1.19 mmol/l MgSO4, 1.19 mmol/l KH2PO4, 10 mmol/l 2-[4-(2-hydroxylethyl)-1-piperadinyl]ethanesulfonic acid, 0.1% BSA, pH 7.3] containing 2 mmol/l glucose. Subsequently, the resulting cell was incubated in 1 ml of the buffer A containing 2 mmol/l glucose at 37° C. for 45 minutes. The culture supernatant was exchanged with the buffer A (1 ml) containing test compounds of various concentrations and 8.4 mmol/l glucose and incubated at 37° C. for 45 minutes to collect the culture supernatant.
Antibody-reactive insulin secreted in the culture supernatant was assayed by radioimmunoassay [Methods in Investigative and Diagnostic Endocrinology, Vol. 2A, 2B, North-Holland Publishing Co., Amsterdam (1973)] after the culture supernatant was diluted with phosphate buffer containing 1% BSA, 0.1% Tween 20, 0.12% EDTA 2Na, and 0.1% sodium azide. A standard curve was prepared by using human insulin as the standard substance, and individual insulin values were calculated on the basis of the curve.

[1] = tested on: pancreatic β cell (MIN6 cell); test: Inhibition of binding of [3H]-labeled Compound 16 to pancreatic β cell; set-up: species or system murine; conditions: for Binding inhibitory activity (%): test compound 1 μmol/l, 10 nmol/l [3H]-labeled Compound 16, MIN6 cell, 4° C.; for Binding inhibition (%): pancreatic β cells, [3H]-labeled Compound 16, tested substance 1 μmol/l or 10 μmol/l
Experimental: MIN6 cell cultured to almost confluence in a 24-well plate for cell culture (manufactured by Corning) was washed twice with KRH buffer (119 mmol/l NaCl, 4.74 mmol/KCl, 2.54 mmol/l calcium chloride (CaCl2), 1.19 mmol/l magnesium sulfate (MgSO4), 1.19 mmol/l potassium dihydrogen phosphate (KH2PO4), 10 mmol/l HEPES, 2 mmol/l glucose, 0.1 w/v % bovine serum albumin (BSA), pH 7.3). Subsequently, the KRH buffer was added at 1 ml per well, for preincubation at 37° C. for 45 minutes. After preincubation, the supernatant was discarded, and 0.15 ml of the KRH buffer, […] at 4° C. for one hour or longer until the reaction reached equilibrium. Subsequently, the cell was washed twice using the KRH buffer. The KRH buffer was added at 2 ml per well, which was then left to stand at room temperature for 20 minutes. The cell was again washed twice by using the KRH buffer. The radioactivity remaining in each well was counted with a liquid scintillation counter to determine the binding amount.
The difference between the binding amount of the [^3H]-labeled Compound 16 (total binding amount) under conditions with no addition of any test compound and the binding amount of the [^3H]-labeled Compound 16 (non-specific binding amount) under conditions in the presence of the Compound 16 at 10 μmol/l was defined as specific binding amount.
According to the method described in Example 5, a substance having anti-diabetic activity was screened for, using the inhibitory activity of the binding between pancreatic β cells and [^3H]-labeled Compound 16. A tested substance was dissolved in dimethylsulfoxide and then added to give a final concentration of 1 μmol/l. The radioactivity with addition of the unlabeled Compound 16 was defined as the non-specific binding amount and the radioactivity without addition of the unlabeled Compound 16 was defined as the total binding amount, and then the individual specific binding amounts were calculated by the method described in Example 6. Using the following formula, the binding inhibition ratio was determined. [formula]

[2] = promoted insulin secretion level of Compound 16 = 100%

| Compound | Insulin secretory activity (%) (MIN6 cell) | Binding inhibitory activity (%) [1] [%] | further results |
| --- | --- | --- | --- |
| CCCN1C(=O)N2CC(CCc3ccccc3)N=C2c2[nH]c(C3CCCC3)nc21 (centres unmarked) [compound 31] | 80.5 | 112.4 | – |
| CCCN1C(=O)N2CC(Cc3ccccc3)N=C2c2[nH]c(C3CC3)nc21 (centres unmarked) [compound 36] | 47.0 | 57.9 | – |
| CCCN1C(=O)N2CC(Cc3ccccc3)N=C2c2[nH]c(C3CCC3)nc21 (centres unmarked) [compound 37] | 61.0 | 73.7 | – |
| CCCN1C(=O)N2CC(Cc3ccccc3)N=C2c2[nH]c(C3CCCCC3)nc21 (centres unmarked) [compound 38] | 83.0 | 71.8 | – |
| CCCN1C(=O)N2CC(Cc3ccccc3)N=C2c2[nH]c(CC3CCCC3)nc21 (centres unmarked) [compound 40] | 76.3 | 38.5 | – |
| CCCN1C(=O)N2CC(Cc3ccccc3)N=C2c2[nH]c(C(C)C)nc21 (centres unmarked) [compound 41] | 37.2 | 55.0 | – |
| CCCN1C(=O)N2CC(Cc3ccccc3)N=C2c2[nH]c(C(C)(C)C)nc21 (centres unmarked) [compound 43] | 54.4 | 77.6 | – |
| CCCN1C(=O)N2CC(Cc3cccc(C)c3)N=C2c2[nH]c(C3CCCC3)nc21 (centres unmarked) [compound 61] | 80.4 | 50.8 | – |
| CCCN1C(=O)N2CC(Cc3ccc(O)cc3)N=C2c2[nH]c(C3CCCC3)nc21 (centres unmarked) [compound 76] | 16.9 | 12.6 | – |
| CN1C(=O)N2CC(Cc3ccccc3)N=C2c2[nH]c(C3CCCC3)nc21 (centres unmarked) [compound 84] | 31.7 | 66.4 | – |
| O=C1N2CC(Cc3ccccc3)N=C2c2[nH]c(C3CCCC3)nc2N1c1ccccc1 (centres unmarked) [compound 85] | 26.7 | 72.0 | – |
| CCCN1C(=O)N2CC(Cn3cncn3)N=C2c2[nH]c(C3CCCC3)nc21 (centres unmarked) [compound 116] | −1.7 | 7.9 | – |
| CCCN1C(=O)N2CC(Cn3cccc3)N=C2c2[nH]c(C3CCCC3)nc21 (centres unmarked) [compound 117] | 43.5 | 68.6 | – |
| CCCN1C(=O)N2CC(Cc3ccccc3)N=C2c2[nH]c(COCC)nc21 (centres unmarked) [compound 138] | 7.8 | 60.7 | – |
| CCCN1C(=O)N2CC(Cc3ccccc3)N=C2c2[nH]c(C3CCCO3)nc21 (centres unmarked) [compound 144] | 28.5 | 50.5 | – |
| CCCN1C(=O)N2CC(Cc3ccccc3)N=C2c2[nH]c(C3CCC(O)CC3)nc21 (centres unmarked) [compound 147] | 45.6 | 56.8 | – |
| O=C1N2CC(Cc3ccccc3)N=C2c2[nH]c(C3CCCC3)nc2N1Cc1ccc(F)cc1 (centres unmarked) [compound 175] | 54.7 | 49.5 | – |
| CCCN1C(=O)N2CC(Cc3ccccc3)N=C2c2[nH]c(C)nc21 (centres unmarked) [compound 183] | 22.5 | 41.6 | – |
| CCCc1nc2c([nH]1)C1=NC(Cc3ccccc3)CN1C(=O)N2CCC (centres unmarked) [compound 184] | 75.0 | 78.5 | – |
| CCCc1nc2c([nH]1)C1=NC(Cc3ccc(C#N)cc3)CN1C(=O)N2CCC (centres unmarked) [compound 185] | 30.7 | 38.4 | – |
| CCCN1C(=O)N2CC(Cc3ccc(F)cc3)N=C2c2[nH]c(C3CCCC3)nc21 (centres unmarked) [compound 187] | 85.0 | 73.5 | – |
| CCCN1C(=O)N2CC(Cc3ccc(C(=O)O)cc3)N=C2c2[nH]c(C3CCCC3)nc21 (centres unmarked) [compound 188] | −8.0 | −7.6 | – |
| O=C1N2CC(Cc3ccccc3)N=C2c2[nH]c(C3CCCC3)nc2N1CCCO (centres unmarked) [compound 189] | 44.9 | 56.4 | – |
| CNc1nc(NC(C)(C)C)nc(NC(C)(C)C)n1 [compound 193] | – | – | Insulin secretion-promoting activity (%) (MIN6 cell; [2]): 194.8%; promoted insulin secretion level (MIN6 cell; [2]): 195%; inhibition ratio (binding of [3H]-labeled Compound 16 to pancreatic β cells) ([1]; at 10 μmol/l): 84%; Binding inhibition (%) [1]: 84.0% |
| CC(C)(C)Nc1nc(NC(C)(C)C)nc(N2CCOCC2)n1 [compound 194] | – | – | Insulin secretion-promoting activity (%) (MIN6 cell; [2]): 122.7%; Binding inhibition (%) [1]: 78.1% |
| C1=CC2N=CN(c3nc(-n4cnc5ccccc54)nc(-n4cnc5ccccc54)n3)C2C=C1 (centres unmarked) [compound 197] | – | – | Insulin secretion-promoting activity (%) (MIN6 cell; [2]): 31.9%; Binding inhibition (%) [1]: 15.0% |
| CN(C)c1nc(NC(C)(C)C)nc(NC(C)(C)C)n1 [compound 198] | – | – | Insulin secretion-promoting activity (%) (MIN6 cell; [2]): 30.6%; Binding inhibition (%) [1]: 99.0% |
